This is an account of results in patent US8580746B2, “Amide linkage cyclic natriuretic peptide constructs” (Palatin Technologies, Inc., priority 2006, dated 2013).

The EC50 is the concentration at which the effect is half-maximal. What is called Ki is the equilibrium dissociation constant of an inhibitor or competing ligand from its target. A higher Ki goes with a looser hold on the target.

Numbered stars: 1 amine (or outer) side, 2 acyl side, 3 side chain; on linkers, the order of the positions; unused ones are H or OH. Bridge positions count the residues as written; N and C are the ends. Square brackets hold non-standard residues; d marks the D form. Peptide text beside a SMILES is read from it. * marks the point of attachment. X1 = N=C(N)NCCC[C@H]1C(=O)N[C@@H](C(N)=O)CN1*; Glutaryl = O=C(CCCC(=O)[*:2])[*:1]; Suc = O=C(CCC(=O)[*:2])[*:1]; dNle = CCCC[C@@H](N)C(=O)O; Heptanoyl = CCCCCCC(=O)*; Nle = CCCC[C@H](N)C(=O)O; Orn = NCCC[C@H](N)C(=O)O; Dab = NCC[C@H](N)C(=O)O; Dap = NC[C@H](N)C(=O)O

In series [1] the target is T1, human natriuratic peptide receptor A (NPRA) (Homo sapiens, UniProt P16066).
T1 sequence (P16066 33-1061): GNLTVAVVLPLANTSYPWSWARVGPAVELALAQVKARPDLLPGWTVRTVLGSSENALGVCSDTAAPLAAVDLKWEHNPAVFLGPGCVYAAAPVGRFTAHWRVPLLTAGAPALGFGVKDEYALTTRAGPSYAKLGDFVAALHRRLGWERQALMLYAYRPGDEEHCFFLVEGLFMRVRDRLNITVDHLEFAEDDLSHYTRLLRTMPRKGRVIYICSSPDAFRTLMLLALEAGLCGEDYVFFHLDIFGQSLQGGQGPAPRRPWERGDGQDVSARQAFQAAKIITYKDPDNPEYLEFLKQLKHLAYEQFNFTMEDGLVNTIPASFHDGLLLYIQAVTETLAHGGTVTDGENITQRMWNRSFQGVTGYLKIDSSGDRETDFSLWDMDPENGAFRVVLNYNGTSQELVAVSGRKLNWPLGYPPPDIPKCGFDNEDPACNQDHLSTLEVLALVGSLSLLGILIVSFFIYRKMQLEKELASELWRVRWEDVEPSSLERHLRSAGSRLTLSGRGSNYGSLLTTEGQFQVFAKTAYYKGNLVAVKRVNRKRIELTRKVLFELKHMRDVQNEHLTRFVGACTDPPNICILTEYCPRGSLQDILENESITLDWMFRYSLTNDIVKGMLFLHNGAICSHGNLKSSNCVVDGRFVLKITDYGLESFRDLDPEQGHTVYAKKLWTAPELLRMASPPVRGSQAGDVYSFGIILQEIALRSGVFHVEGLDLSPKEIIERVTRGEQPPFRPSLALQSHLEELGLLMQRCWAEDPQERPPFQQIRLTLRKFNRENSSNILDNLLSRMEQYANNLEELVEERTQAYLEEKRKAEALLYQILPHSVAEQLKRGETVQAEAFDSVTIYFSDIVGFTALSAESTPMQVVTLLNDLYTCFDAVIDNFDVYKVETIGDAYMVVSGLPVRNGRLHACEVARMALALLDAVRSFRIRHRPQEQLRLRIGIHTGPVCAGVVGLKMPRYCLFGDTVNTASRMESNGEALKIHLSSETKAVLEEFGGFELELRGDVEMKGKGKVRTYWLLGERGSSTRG
In words: Competitive inhibition binding assay, [125I]-ANP, membrane homogenates from HEK-hNPRA cells. As to conditions: for Percent Inhibition: inhibition of [125I]-ANP binding to HEK-hNPRA membranes, construct concentration not stated. From the text:
(§1) A cDNA clone that encodes for human natriuratic peptide receptor A (NPRA) was purchased from Bio S&T Inc. (Montreal, Quebec). The cDNA clone was inserted into the mammalian expression vector pcDNA3.1 (Invitrogen) and transfected into HEK-293 cells. Stable clones were selected by culture of cells in the presence of G418 sulfate. Expression of NPRA was examined by binding of [^125I]-atrial natriuretic peptide ([^125I]-ANP) to membrane homogenates prepared from clonal cell lines. HEK-hNPRA cells were maintained in culture at 37° C. in 5% CO2 in Dulbecco's Modified Eagle's Medium (DMEM) supplemented with 10% FBS, G418 sulfate (300 μg/mL) sodium glutamate (0.29 mg/mL), penicillin (100 units/mL) and streptomycin (100 ug/mL).
A competitive inhibition binding assay was performed using crude membrane homogenates prepared from HEK-hNPRA cells. To prepare membrane homogenates, cells were rinsed with phosphate-buffered saline and incubated for 15 minutes at 4° C. in hypotonic lysis buffer (10 mM Tris, pH 7.4+5 mM EDTA). Cells were transferred from plates to polypropylene tubes and homogenized. Homogenates were centrifuged at 25,000×g for 20 minutes. Pellets were resuspended in buffer consisting of 50 mM Tris (pH 7.4) and 1 mM EDTA, homogenized and centrifuged at 25,000×g for 20 minutes. Pellets were resuspended in buffer consisting of 100 mM Tris (pH 7.4) and 10 mM MgCl2 and stored at −80° C. until needed. On the day of an assay, homogenates were thawed and homogenized. Binding of [^125I]-ANP was carried out in buffer containing 25 mM Hepes (pH 7.4), 100 mM NaCl, 2 mM CaCl2, 5 mM MgCl2, 0.1% BSA and 1 mM 1,10-phenanthroline. Homogenates (1-10 μg protein/well) were incubated with [^125I]-ANP (25-30 pM) and increasing concentrations of competing ligands in Millipore filter plates for 120 minutes at 4° C. Assays were stopped by addition of cold wash buffer (phosphate-buffered saline) followed by filtration using a vacuum manifold. Bound radioactivity was determined using a gamma counter. Non-specific binding was defined by binding of [I^125]-hANP to non-transfected HEK293 membranes. Data were analyzed using GraphPad Prism® curve-fitting software.

The target in a further series is T2, hNPR-A (Homo sapiens, UniProt P16066).
T2 sequence (P16066 33-1061): T1 sequence (P16066 33-1061)
In words: Accumulation of intracellular cGMP in HEK-293 cells that express recombinant hNPR-A. It is filed as cell-based. Conditions: HEK-hNPRA cells.
Excerpt: as §1
Functional evaluation of constructs was performed by measuring the accumulation of intracellular cGMP in HEK-293 cells that express recombinant hNPR-A. HEK-NPRA cells were harvested by washing and centrifugation in Cell Dissociation Buffer (Gibco, Life Technologies). Pelleted cells were resuspended in Hank's Balanced Salt Solution (HBSS) containing 10 mM Hepes (pH 7.4), 5 mM MgCl2, […], 1 mM 1,10-phenanthroline and BSA (0.5 mg/mL). Following centrifugation, cells were resuspended in the above buffer supplemented with 0.5 mM 3-isobutyl-1-methylxanthine (IBMX). Cells (˜2×10^5/well) were added to each well of a 96-well plate and incubated for 15 minutes at 37° C. Following the pre-incubation period, cells were incubated for an additional 15 minutes in the presence of increasing concentrations of constructs. The reaction was terminated by lysis of the cells with temperature shock. The reaction plate was incubated in a dry ice/ethanol bath for 15 minutes followed by incubation at 90° C. for 10 minutes. Accumulation of cGMP was measured using the cGMP Flashplate RIA (Perkin-Elmer). Data analysis and EC50 values were determined by using nonlinear regression analysis with GraphPad Prism® software.

The nature of series [2]: Resistance to degradation by human neutral endopeptidase. Conditions: isolated enzyme neprilysin; 50 μM concentration of human neutral endopeptidase; two hours; read-out: percent of construct remained after incubation for two hours. It is filed as in vitro ADME. The method, then: (§2) In other tests, resistance to degradation by a 50 μM concentration of human neutral endopeptidase was determined for selected constructs.

Another series has as its system neutral endopeptidase. The description is as above. The series is classed as in vitro ADME. As to conditions: human neutral endopeptidase (isolated enzyme); 50 μM concentration of human neutral endopeptidase; two hours; read-out: percent of construct remained after incubation for two hours. The method, then:
as §2

As for `CCCCCCC(=O)N[C@H]1CNC(=O)CCCC(=O)NCCC[C@@H](C(=O)N[C@@H](Cc2ccc(O)cc2)C(=O)N2C[C@H](C(N)=O)NC(=O)[C@@H]2CCCNC(=N)N)NC(=O)[C@H](CO)NC(=O)[C@H]([C@@H](C)CC)NC(=O)[C@H](CCCNC(=N)N)NC(=O)[C@H](CC(=O)O)NC(=O)[C@H](CCCC)NC(=O)[C@H](CCCNC(=N)N)NC(=O)CNC(=O)[C@@H](C)NC(=O)[C@H](Cc2ccccc2)NC(=O)[C@@H](Cc2c[nH]cn2)NC1=O` [1-31] (Heptanoyl-[Dap][dH]F[dA]GR[Nle]DRIS[Orn]Y-X1; linker 1-12 via Glutaryl), in series [1], the “Percent Inhibition” value came to 68%. Also, the EC50 at hNPR-A was 10 nM.
Turning to `CCCCCCC(=O)N[C@H]1CNC(=O)CCC(=O)NC[C@@H](C(=O)N[C@@H](Cc2ccc(O)cc2)C(=O)N2C[C@H](C(N)=O)NC(=O)[C@@H]2CCCNC(=N)N)NC(=O)[C@H](CO)NC(=O)[C@H]([C@@H](C)CC)NC(=O)[C@H](CCCNC(=N)N)NC(=O)[C@H](CC(=O)O)NC(=O)[C@H](CCCC)NC(=O)[C@H](CCCNC(=N)N)NC(=O)CNC(=O)[C@@H](C)NC(=O)[C@H](Cc2ccccc2)NC(=O)[C@@H](Cc2c[nH]cn2)NC1=O` [1-37] (Heptanoyl-[Dap][dH]F[dA]GR[Nle]DRIS[Dap]Y-X1; linker 1-12 via Suc), in series [1], the “Percent Inhibition” value worked out at 100%. Besides, the concentration for a half-maximal effect (EC50) at hNPR-A is 0.7 nM.
Consider `CCCCCCC(=O)NCC[C@@H]1NC(=O)CC[C@@H](C(=O)N[C@@H](Cc2ccc(O)cc2)C(=O)N2C[C@H](C(N)=O)NC(=O)[C@@H]2CCCNC(=N)N)NC(=O)[C@H](CO)NC(=O)[C@H]([C@@H](C)CC)NC(=O)[C@H](CCCNC(=N)N)NC(=O)[C@H](CC(=O)O)NC(=O)[C@@H](CCCC)NC(=O)[C@H](CCCNC(=N)N)NC(=O)CNC(=O)[C@@H](C)NC(=O)[C@H](Cc2ccccc2)NC(=O)[C@H](Cc2c[nH]cn2)NC1=O` [3-75] ([Dab](Heptanoyl)HF[dA]GR[dNle]DRISEY-X1; lactam N-12), for which the “Percent Inhibition” value in series [1] is 98%. On hNPR-A, the EC50 was 5 nM. The remaining at 2 h in series [2] was determined as 97%.
Consider `CCCCCCC(=O)NC[C@@H]1NC(=O)CC[C@@H](C(=O)N[C@@H](Cc2ccc(O)cc2)C(=O)N2C[C@H](C(N)=O)NC(=O)[C@@H]2CCCNC(=N)N)NC(=O)[C@H](CO)NC(=O)[C@H]([C@@H](C)CC)NC(=O)[C@H](CCCNC(=N)N)NC(=O)[C@H](CC(=O)O)NC(=O)[C@@H](CCCC)NC(=O)[C@H](CCCNC(=N)N)NC(=O)CNC(=O)[C@@H](C)NC(=O)[C@H](Cc2ccccc2)NC(=O)[C@H](Cc2c[nH]cn2)NC1=O` [3-76] ([Dap](Heptanoyl)HF[dA]GR[dNle]DRISEY-X1; lactam N-12), for which the “Percent Inhibition” value in series [1] was found to be 93%. The EC50 at hNPR-A amounted to 10 nM. Further, in the series with neutral endopeptidase, the remaining at 2 h was determined as 84%.
`CCCC[C@H]1NC(=O)[C@H](CCCNC(=N)N)NC(=O)CNC(=O)[C@@H](C)NC(=O)[C@H](Cc2ccccc2)NC(=O)[C@H](Cc2c[nH]cn2)NC(=O)[C@@H](NC(=O)[C@@H](C)N)CCC(=O)NCC[C@@H](C(=O)N[C@@H](Cc2ccc(O)cc2)C(=O)N2C[C@H](C(N)=O)NC(=O)[C@@H]2CCCNC(=N)N)NC(=O)[C@H](CO)NC(=O)[C@H]([C@@H](C)CC)NC(=O)[C@H](CCCNC(=N)N)NC(=O)[C@H](CC(=O)O)NC1=O` [4-90] (H-[dA]EHF[dA]GR[dNle]DRIS[Dab]Y-X1; lactam 2-13) registered a Ki in series [1] ([125I]-ANP competition, HEK-hNPRA membranes) of 40 nM. Also, the EC50 at hNPR-A came to 11 nM. Further, the remaining at 2 h in series [2] amounted to 95%.
`CCCCCCC(=O)N[C@H]1CC(=O)NCC[C@@H](C(=O)N[C@@H](Cc2ccc(O)cc2)C(=O)N2C[C@H](C(N)=O)NC(=O)[C@@H]2CCCNC(=N)N)NC(=O)[C@H](CO)NC(=O)[C@H]([C@@H](C)CC)NC(=O)[C@H](CCCNC(=N)N)NC(=O)[C@H](CC(=O)O)NC(=O)[C@H](CCCC)NC(=O)[C@H](CCCNC(=N)N)NC(=O)CNC(=O)CNC(=O)[C@H](Cc2ccccc2)NC(=O)[C@H](Cc2c[nH]cn2)NC1=O` [4-137] (Heptanoyl-DHFGGR[Nle]DRIS[Dab]Y-X1; lactam 1-12): the “Percent Inhibition” value in series [1] was 78%. Besides, on hNPR-A, the half-maximal effective concentration (EC50) came out at 0.25 nM.
For the molecule `CCCCCCC(=O)N[C@H]1CC(=O)NCC[C@@H](C(=O)N[C@@H](Cc2ccc(O)cc2)C(=O)N2C[C@H](C(N)=O)NC(=O)[C@@H]2CCCNC(=N)N)NC(=O)[C@H](CO)NC(=O)[C@H]([C@@H](C)CC)NC(=O)[C@H](CCCNC(=N)N)NC(=O)[C@H](CC(=O)O)NC(=O)[C@@H](CCCC)NC(=O)[C@H](CCCNC(=N)N)NC(=O)CNC(=O)[C@@H](C)NC(=O)[C@H](Cc2ccccc2)NC(=O)[C@H](Cc2c[nH]cn2)NC1=O` [4-138] (Heptanoyl-DHF[dA]GR[dNle]DRIS[Dab]Y-X1; lactam 1-12), the “Percent Inhibition” value in series [1] was determined as 100%. Moreover, at hNPR-A, the EC50 came out at 4 nM. The remaining at 2 h in series [2] came to 89%.
As for `CCCC[C@@H]1NC(=O)[C@H](CCCNC(=N)N)NC(=O)CNC(=O)CNC(=O)[C@H](Cc2ccccc2)NC(=O)[C@H](Cc2c[nH]cn2)NC(=O)[C@@H](N)CC(=O)NCC[C@@H](C(=O)N[C@@H](Cc2ccc(O)cc2)C(=O)N2C[C@H](C(N)=O)NC(=O)[C@@H]2CCCNC(=N)N)NC(=O)[C@H](CO)NC(=O)[C@H]([C@@H](C)CC)NC(=O)[C@H](CCCNC(=N)N)NC(=O)[C@H](CC(=O)O)NC1=O` [4-143] (H-DHFGGR[Nle]DRIS[Dab]Y-X1; lactam 1-12), the “Percent Inhibition” value in series [1] stood at 69%. The concentration for a half-maximal effect (EC50) at hNPR-A came out at 0.2 nM.
